Laboratory results as given in patent US20060258671A1, “Phenylpyridylpiperazine compounds” (priority 2005, published 2006).

Biological target: T1, type H3 central histamine receptors (Mus musculus, UniProt P58406)
T1 construct: from tissue; host or cells: brain of living NMRI mice, treated in vivo; brains removed afterwards for the metabolite RIA
Test: Cerebral levels of Nτ-methylhistamine in the NMRI mouse (ex vivo, RIA)
Settings: one hour after treatment
Method: The purpose of this study, which was carried out in accordance with the method of Taylor et al. (Biochem. Pharm., 1992, 44, 1261-1267), is to evaluate the ex vivo activity of the compounds of the present invention as antagonists of type H3 central histamine receptors. […] An increase in the cerebral concentrations of N^τ-methylhistamine indicates an increase in the turn-over of histamine by blockage of the type H3 central histamine receptors.
NMRI mice (18-20 g) are treated intraperitoneally or orally with compounds of the present invention or with their carrier (20 ml/kg). One hour after the pharmacological treatment, the animals are sacrificed, and their brains are removed, frozen in liquid nitrogen, weighed and homogenised in 0.1N HClO4 at 4° C. The homogenised products are centrifuged (15 000 g, 17 min, 4° C.). The supernatants are recovered and divided into aliquots. The aliquots are frozen in liquid nitrogen and stored at −80° C. until analysis.
Determination of the cerebral levels of N′-methylhistamine is carried out by radio-immunological assay (RIA) using an assay kit. The tissue levels of N^τ-methylhistamine are expressed in μg/g of fresh brain. […]

T1 sequence (P58406 whole entry): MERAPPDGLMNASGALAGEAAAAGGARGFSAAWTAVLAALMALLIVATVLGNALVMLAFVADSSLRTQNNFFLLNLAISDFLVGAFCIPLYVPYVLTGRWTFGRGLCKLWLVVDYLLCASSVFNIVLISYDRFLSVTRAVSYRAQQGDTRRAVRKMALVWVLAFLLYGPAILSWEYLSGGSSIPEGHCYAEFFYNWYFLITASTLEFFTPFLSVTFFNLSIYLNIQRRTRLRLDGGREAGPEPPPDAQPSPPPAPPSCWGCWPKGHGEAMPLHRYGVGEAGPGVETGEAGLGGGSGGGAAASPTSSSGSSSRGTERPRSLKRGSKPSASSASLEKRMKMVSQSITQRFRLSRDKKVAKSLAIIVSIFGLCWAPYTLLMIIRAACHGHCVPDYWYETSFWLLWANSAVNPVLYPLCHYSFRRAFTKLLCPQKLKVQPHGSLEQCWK

Compound | increase in the endogenous cerebral concentrations of Nτ-methylhistamine (10 mg/kg PO) [%] | increase in the endogenous cerebral concentrations of Nτ-methylhistamine (3 mg/kg PO) [%]
CS(=O)(=O)Nc1ccc(-c2ccc(N3CCN(C4CC4)CC3)nc2)cc1.Cl.Cl [Example 4, N-{4-[6-(4-Cyclopropylpiperazin-1-yl)pyridin-3-yl]phenyl}methane-sulphonamide dihydrochloride] | 162 | –
CC(C)N1CCN(c2ccc(-c3ccc(NS(=O)(=O)C(C)C)cc3)cn2)CC1.Cl.Cl [Example 7, N-{4-[6(4-Isopropylpiperazin-1-yl)pyridin-3-yl]phenyl}propane-2-sulphonamide dihydrochloride] | – | 138
